{
  "source": "patent US20200261516A1",
  "about": "“Composition for Increasing Muscle Mass” (MORINAGA MILK INDUSTRY CO., LTD., priority 2017, published 2020)",
  "test_system": "C57BL/6 mice",
  "experiment": "Mouse test: muscle wet weight (body weight ratio) and gastrocnemius histology after 4-week oral administration",
  "type": "in vivo",
  "conditions": "once a day for 4 weeks, n=7/group",
  "method": "C57BL/6 mice (Charles River, Japan: healthy mice) were used as test animals to evaluate the effect of 4-week continuous ingestion of Bifidobacterium breve FERM BP-11175 on muscle mass increase.\nAfter receiving the test animals at 9 weeks old, F-2 feed (manufactured by Funabashi Pharm) and tap water were freely ingested. After one week of acclimatization, the test animals were divided into 3 groups (n=7/group): a control group (administered 10 mL/kg body weight of tap water); a Bifidobacterium administration group (administered 10 mL/kg body weight of culture supernatant of Bifidobacterium breve FERM BP-11175 prepared in (1) of test example 1); and a leucine administration group (administered 1.5 g/kg body weight of leucine), and oral administration was continued for each mouse using an oral probe once a day for 4 weeks. After the final administration, the test animals were fasted for 3 hours, followed by treatment under sevoflurane anesthesia, and plantaris and gastrocnemius was removed to measure the wet weight (body weight ratio) of each tissue. For gastrocnemius, the thin-sectioned tissue was stained with HE, and then the tissue was observed under a microscope.",
  "data": [
    {"molecule": "CC(C)C[C@H](N)C(=O)O", "note": "[Leucine, leucine]", "values": [
      {"measurement": "Gastrocnemius tissue weight (body weight ratio) [Mean value ± SE]", "result": "5.417 ± 0.125", "unit": "mg/g body weight"},
      {"measurement": "Plantaris tissue weight (body weight ratio) [Mean value ± SE]", "result": "0.706 ± 0.027", "unit": "mg/g body weight"}
    ]}
  ]
}
